Drawing on patent US8952034B2, “Fused heterocyclic compounds as ion channel modulators” (Gilead Sciences, Inc., priority 2009, dated 2015), this text covers inhibition for 30 molecules.

Chain of wild-type human cardiac sodium channel, hNav1.5 (Q14524 whole entry): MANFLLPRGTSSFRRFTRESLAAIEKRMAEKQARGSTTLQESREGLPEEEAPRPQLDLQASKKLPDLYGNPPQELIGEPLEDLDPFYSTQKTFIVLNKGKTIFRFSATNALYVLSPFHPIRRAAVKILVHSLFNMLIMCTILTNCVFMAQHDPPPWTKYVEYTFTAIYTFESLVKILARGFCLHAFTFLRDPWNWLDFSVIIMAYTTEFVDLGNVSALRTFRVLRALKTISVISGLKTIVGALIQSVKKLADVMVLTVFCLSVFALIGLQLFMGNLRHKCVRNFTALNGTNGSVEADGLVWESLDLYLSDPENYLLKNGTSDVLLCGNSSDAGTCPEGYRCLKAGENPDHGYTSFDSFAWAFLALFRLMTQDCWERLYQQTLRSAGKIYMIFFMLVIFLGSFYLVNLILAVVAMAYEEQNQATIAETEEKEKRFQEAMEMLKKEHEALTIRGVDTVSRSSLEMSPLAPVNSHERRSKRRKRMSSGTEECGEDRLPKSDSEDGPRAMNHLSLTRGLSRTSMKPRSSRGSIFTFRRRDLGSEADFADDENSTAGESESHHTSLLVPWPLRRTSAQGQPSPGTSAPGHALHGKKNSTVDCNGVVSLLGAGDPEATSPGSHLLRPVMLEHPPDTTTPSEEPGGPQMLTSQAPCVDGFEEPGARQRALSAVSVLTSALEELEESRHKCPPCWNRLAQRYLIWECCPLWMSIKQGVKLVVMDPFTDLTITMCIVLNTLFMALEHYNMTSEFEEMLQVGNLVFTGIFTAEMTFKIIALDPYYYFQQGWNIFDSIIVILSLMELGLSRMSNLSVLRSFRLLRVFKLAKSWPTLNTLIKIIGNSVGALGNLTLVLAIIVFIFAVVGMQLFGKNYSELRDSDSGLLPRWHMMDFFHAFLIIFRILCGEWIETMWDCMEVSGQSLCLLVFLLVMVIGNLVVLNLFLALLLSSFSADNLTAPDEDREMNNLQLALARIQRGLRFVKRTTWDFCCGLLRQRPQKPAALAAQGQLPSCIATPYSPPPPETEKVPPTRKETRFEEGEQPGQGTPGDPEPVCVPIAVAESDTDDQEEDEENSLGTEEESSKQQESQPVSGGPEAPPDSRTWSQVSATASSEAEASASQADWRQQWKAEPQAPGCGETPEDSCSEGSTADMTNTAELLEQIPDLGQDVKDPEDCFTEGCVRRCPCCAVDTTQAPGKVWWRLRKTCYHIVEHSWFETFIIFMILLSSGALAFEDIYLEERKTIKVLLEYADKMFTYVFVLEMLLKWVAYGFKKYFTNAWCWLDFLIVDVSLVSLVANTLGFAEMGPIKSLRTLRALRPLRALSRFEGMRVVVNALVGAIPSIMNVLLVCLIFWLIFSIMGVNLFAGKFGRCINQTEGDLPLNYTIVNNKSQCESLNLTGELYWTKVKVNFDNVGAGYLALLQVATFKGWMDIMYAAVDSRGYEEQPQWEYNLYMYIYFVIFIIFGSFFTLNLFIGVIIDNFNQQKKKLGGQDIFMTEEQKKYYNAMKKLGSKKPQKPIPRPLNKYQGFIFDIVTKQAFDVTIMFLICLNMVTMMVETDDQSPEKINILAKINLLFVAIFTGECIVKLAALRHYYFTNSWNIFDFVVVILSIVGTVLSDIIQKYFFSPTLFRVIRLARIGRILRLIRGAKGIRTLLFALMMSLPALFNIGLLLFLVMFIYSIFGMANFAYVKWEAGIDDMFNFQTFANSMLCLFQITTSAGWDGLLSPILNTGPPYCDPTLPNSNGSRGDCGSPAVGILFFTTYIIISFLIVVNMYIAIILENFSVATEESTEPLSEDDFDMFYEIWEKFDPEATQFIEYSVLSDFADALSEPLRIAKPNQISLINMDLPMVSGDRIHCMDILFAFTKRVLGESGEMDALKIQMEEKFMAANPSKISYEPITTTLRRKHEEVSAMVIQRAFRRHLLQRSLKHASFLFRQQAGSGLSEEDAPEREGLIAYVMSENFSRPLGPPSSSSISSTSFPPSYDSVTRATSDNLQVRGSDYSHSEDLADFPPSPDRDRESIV

In this test the target is wild-type human cardiac sodium channel, hNav1.5 (Homo sapiens, UniProt Q14524). Description: Late INa screening assay (automated whole cell patch clamp, PatchXpress). Type of test: cell-based. Particulars: compound at 1 μM; HEK293 cells expressing hNav1.5; late INa generated with 10 μM Tefluthrin (or 50 nM ATX II); read-out: LateINa_1 uM (percent block of late INa). The method, boiled down:
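Late sodium current through wild-type human hNav1.5 stably expressed in HEK293 cells (no beta subunits) was recorded by automated whole-cell patch clamp on a PatchXpress 7000A at 24-27° C. Late INa was induced with 10 μM Tefluthrin or 50 nM ATX II. Cells were stepped from −120 mV to −20 mV for 250 ms at 0.1 Hz, and percent block was normalized to current in Na-free extracellular solution.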
A general note: In patch-clamp work, channel activity is measured electrically.
Take `FC(F)(F)Oc1ccc(-c2ccc3nnc(C(F)(F)OCC4CC4(F)F)n3c2)cc1` (stereo not drawn) [BHN-294, 3-{[(2,2-difluorocyclopropyl)methoxy](difluoro)methyl}-6-[4-(trifluoromethoxy)phenyl][1,2,4]triazolo[4,3-a]pyridine]: the inhibition at 1 µM is 77.6%.
`FC(F)(F)Oc1ccc(-c2ccc3nnc(C(F)(F)OCC#Cc4ccccc4)n3c2)cc1` [BHN-295, 3-{difluoro[(3-phenylprop-2-yn-1-yl)oxy]methyl}-6-[4-(trifluoromethoxy)phenyl][1,2,4]triazolo[4,3-a]pyridine]: the inhibition at 1 µM is 87.7%.
Turning to `Cn1c(COC(F)(F)c2nnc3ccc(-c4ccc(OC(F)(F)F)cc4)cn23)nc2ccccc21` [BHN-296, 3-{difluoro[(1-methyl-1H-benzimidazol-2-yl)methoxy]methyl}-6-[4-(trifluoromethoxy)phenyl][1,2,4]triazolo[4,3-a]pyridine], the inhibition at 1 µM worked out at 40.1%.
For `FC(F)(F)Oc1ccc(-c2ccc3nnc(C(F)(F)OCc4cn(Cc5ccccc5)nn4)n3c2)cc1` [BHN-297, 3-{[(1-benzyl-1H-1,2,3-triazol-4-yl)methoxy](difluoro)methyl}-6-[4-(trifluoromethoxy)phenyl][1,2,4]triazolo[4,3-a]pyridine] the value was 63.4%.
The same measure for `FC(F)(F)Oc1ccc(-c2ccc3nnc(C(F)(F)OCc4cc(-c5ccccc5)on4)n3c2)cc1` [BHN-298, 3-{difluoro[(5-phenyl-1,2-oxazol-3-yl)methoxy]methyl}-6-[4-(trifluoromethoxy)phenyl][1,2,4]triazolo[4,3-a]pyridine]: 70.3%; for `FC(F)(F)Oc1ccc(-c2ccc3nnc(C(F)(F)OCc4coc(-c5ccccc5)n4)n3c2)cc1` [BHN-299, 3-{difluoro[(2-phenyl-1,3-oxazol-4-yl)methoxy]methyl}-6-[4-(trifluoromethoxy)phenyl][1,2,4]triazolo[4,3-a]pyridine]: 51.1%; for `Cc1nn(-c2ccccc2)nc1COC(F)(F)c1nnc2ccc(-c3ccc(OC(F)(F)F)cc3)cn12` [BHN-300, 3-{difluoro[(5-methyl-2-phenyl-2H-1,2,3-triazol-4-yl)methoxy]methyl}-6-[4-(trifluoromethoxy)phenyl][1,2,4]triazolo[4,3-a]pyridine]: 63%.
The same measure for `Cn1ccc(COC(F)(F)c2nnc3ccc(-c4ccc(OC(F)(F)F)cc4)cn23)n1` [BHN-301, 3-{difluoro[(1-methyl-1H-pyrazol-3-yl)methoxy]methyl}-6-[4-(trifluoromethoxy)phenyl][1,2,4]triazolo[4,3-a]pyridine]: 29.9%; for `Cc1cc(COC(F)(F)c2nnc3ccc(-c4ccc(OC(F)(F)F)cc4)cn23)nn1-c1ccc(Cl)cc1` [BHN-302, 3-[{[1-(4-chlorophenyl)-5-methyl-1H-pyrazol-3-yl]methoxy}(difluoro)methyl]-6-[4-(trifluoromethoxy)phenyl][1,2,4]triazolo[4,3-a]pyridine]: 52.8%.
As for `FC(F)(F)Oc1ccc(-c2ccc3nnc(C(F)(F)OCCC(c4ccccc4)c4ccccc4)n3c2)cc1` [BHN-303, 3-[(3,3-diphenylpropoxy)(difluoro)methyl]-6-[4-(trifluoromethoxy)phenyl][1,2,4]triazolo[4,3-a]pyridine], the inhibition at 1 µM is 51%.
As to `FC(F)(F)c1ccc(C#Cc2ccc3nnc(Oc4ccccc4)n3c2)cc1` [BHN-304, 3-phenoxy-6-{[4-(trifluoromethyl)phenyl]ethynyl}[1,2,4]triazolo[4,3-a]pyridine], the inhibition at 1 µM was determined as 28.2%.
For `FC(F)(F)Oc1ccc(-c2ccc3nnc(C(F)(F)OCc4cccc(-c5ncccn5)c4)n3c2)cc1` [BHN-305, 3-(difluoro{[3-(pyrimidin-2-yl)benzyl]oxy}methyl)-6-[4-(trifluoromethoxy)phenyl][1,2,4]triazolo[4,3-a]pyridine] the value was 59.6%; for `FC(F)(F)Oc1ccc(-c2ccc3nnc(C(F)(F)OCc4cccc(-c5cccnc5)c4)n3c2)cc1` [BHN-306, 3-(difluoro{[3-(pyridin-3-yl)benzyl]oxy}methyl)-6-[4-(trifluoromethoxy)phenyl][1,2,4]triazolo[4,3-a]pyridine], 49.7%; for `Cn1nc(COC(F)(F)c2nnc3ccc(-c4ccc(OC(F)(F)F)cc4)cn23)c2ccccc21` [BHN-307, 3-{difluoro[(1-methyl-1H-indazol-3-yl)methoxy]methyl}-6-[4-(trifluoromethoxy)phenyl][1,2,4]triazolo[4,3-a]pyridine], 68.5%.
Take `FC(F)(F)Oc1ccc(-c2ccc3nnc(C(F)(F)Cl)n3c2)cc1` [BHN-308, 3-[chloro(difluoro)methyl]-6-[4-(trifluoromethoxy)phenyl][1,2,4]triazolo[4,3-a]pyridine]: the inhibition at 1 µM was 71.2%.
On to `COCC(F)(F)c1nnc2ccc(C#Cc3ccc(OC(F)(F)F)cc3)cn12` [BHN-309, 3-(1,1-difluoro-2-methoxyethyl)-6-{[4-(trifluoromethoxy)phenyl]ethynyl}[1,2,4]triazolo[4,3-a]pyridine], for which the inhibition at 1 µM was found to be 25.2%.
Turning to `COCC(F)(F)c1nnc2ccc(C#Cc3ccc(F)cc3)cn12` [BHN-310, 3-(1,1-difluoro-2-methoxyethyl)-6-[(4-fluorophenyl)ethynyl][1,2,4]triazolo[4,3-a]pyridine], the inhibition at 1 µM was 21.7%.
For `FC(F)(F)Oc1ccc(-c2ccc3nnc(C(F)(F)OCc4ccccc4-n4cncn4)n3c2)cc1` [BHN-311, 3-(difluoro{[2-(1H-1,2,4-triazol-1-yl)benzyl]oxy}methyl)-6-[4-(trifluoromethoxy)phenyl][1,2,4]triazolo[4,3-a]pyridine] the value was 47.3%; for `Cc1nccn1-c1ccccc1COC(F)(F)c1nnc2ccc(-c3ccc(OC(F)(F)F)cc3)cn12` [BHN-312, 3-(difluoro{[2-(2-methyl-1H-imidazol-1-yl)benzyl]oxy}methyl)-6-[4-(trifluoromethoxy)phenyl][1,2,4]triazolo[4,3-a]pyridine], 51.4%; for `FC(F)(F)Oc1ccc(-c2ccc3nnc(C(F)(F)OCc4nc(-c5ccccc5)oc4C(F)(F)F)n3c2)cc1` [BHN-313, 3-(difluoro{[2-phenyl-5-(trifluoromethyl)-1,3-oxazol-4-yl]methoxy}methyl)-6-[4-(trifluoromethoxy)phenyl][1,2,4]triazolo[4,3-a]pyridine], 50%.
`FC(F)(F)Oc1ccc(-c2ccc3nnc(C(F)(F)OCc4cn(-c5ccccc5)nc4C(F)(F)F)n3c2)cc1` [BHN-314, 3-(difluoro{[1-phenyl-3-(trifluoromethyl)-1H-pyrazol-4-yl]methoxy}methyl)-6-[4-(trifluoromethoxy)phenyl][1,2,4]triazolo[4,3-a]pyridine]: the inhibition at 1 µM was determined as 24.2%.
The same measure for `FC(F)(F)Oc1ccc(-c2ccc3nnc(C(F)(F)OCc4ccc(-n5cccn5)nc4)n3c2)cc1` [BHN-315, 3-(difluoro{[6-(1H-pyrazol-1-yl)pyridin-3-yl]methoxy}methyl)-6-[4-(trifluoromethoxy)phenyl][1,2,4]triazolo[4,3-a]pyridine]: 55.9%.
In the case of `FC(F)(F)Oc1ccc(-c2ccc3nnc(C(F)(F)OCc4cc(-c5ccc(C6CC6)nc5)ccn4)n3c2)cc1` [BHN-316, 6-cyclopropyl-2′-[(difluoro{6-[4-(trifluoromethoxy)phenyl][1,2,4]triazolo[4,3-a]pyridin-3-yl}methoxy)methyl]-3,4′-bipyridine], the inhibition at 1 µM came to 59%.
For the molecule `FC(F)(F)Oc1ccc(-c2ccc3nnc(C(F)(F)OCc4cccc(-n5cnc(C6CC6)c5)c4)n3c2)cc1` [BHN-317, 3-[{[3-(4-cyclopropyl-1H-imidazol-1-yl)benzyl]oxy}(difluoro)methyl]-6-[4-(trifluoromethoxy)phenyl][1,2,4]triazolo[4,3-a]pyridine], the inhibition at 1 µM is 46.4%.
The same measure for `Fc1ccc(-c2cc(COC(F)(F)c3nnc4ccc(-c5ccc(OC(F)(F)F)cc5)cn34)no2)cc1` [BHN-318, 3-(difluoro{[5-(4-fluorophenyl)-1,2-oxazol-3-yl]methoxy}methyl)-6-[4-(trifluoromethoxy)phenyl][1,2,4]triazolo[4,3-a]pyridine]: 28.9%; for `FC(F)(F)c1ccc(-c2ccc3nnc(C(F)(F)OCc4cc(-c5ccccc5)on4)n3c2)cn1` [BHN-319, 3-{difluoro[(5-phenyl-1,2-oxazol-3-yl)methoxy]methyl}-6-[6-(trifluoromethyl)pyridin-3-yl][1,2,4]triazolo[4,3-a]pyridine]: 30.5%.
Consider `FC(F)(F)Oc1ccc(-c2ccc3nnc(C(F)(F)OCc4ccnc(N5CCCCC5)c4)n3c2)cc1` [BHN-320, 3-(difluoro{[2-(piperidin-1-yl)pyridin-4-yl]methoxy}methyl)-6-[4-(trifluoromethoxy)phenyl][1,2,4]triazolo[4,3-a]pyridine], for which the inhibition at 1 µM was determined as 76.3%.
The same measure for `CC1(C)Cc2cccc(COC(F)(F)c3nnc4ccc(-c5ccc(OC(F)(F)F)cc5)cn34)c2O1` [BHN-321, 3-{[(2,2-dimethyl-2,3-dihydro-1-benzofuran-7-yl)methoxy](difluoro)methyl}-6-[4-(trifluoromethoxy)phenyl][1,2,4]triazolo[4,3-a]pyridine]: 65.6%.
As for `Fc1cccc(F)c1CCOC(F)(F)c1nnc2ccc(-c3ccc(OC(F)(F)F)cc3)cn12` [BHN-322, 3-{[2-(2,6-difluorophenyl)ethoxy](difluoro)methyl}-6-[4-(trifluoromethoxy)phenyl][1,2,4]triazolo[4,3-a]pyridine], the inhibition at 1 µM was found to be 72.5%.
Turning to `FC(F)(F)Oc1ccc(-c2ccc3nnc(C(F)(F)OCc4noc(-c5ccccc5)n4)n3c2)cc1` [BHN-323, 3-{difluoro[(5-phenyl-1,2,4-oxadiazol-3-yl)methoxy]methyl}-6-[4-(trifluoromethoxy)phenyl][1,2,4]triazolo[4,3-a]pyridine], the inhibition at 1 µM was determined as 73%.
